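48-hour exposure; five concentrations; linearly interpolated endpoints. Here, GI50 denotes the concentration required for 50% inhibition of growth.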 Activity calls are given as the source filed them. No stated cut-off is given here; in the data, active = GI50 up to about 1.1 µM and inactive = higher.
How the values were obtained:
Test in all cases: inhibition of tumour cell growth, NCI panel, 48 h
M19-MEL = test system: M19-MEL
SR = test system: SR
SNB-75 = test system: SNB-75
KM12 = test system: KM12
NCI-H522 = test system: NCI-H522
Malme-3M = test system: Malme-3M
TK-10 = test system: TK-10
UACC-257 = test system: UACC-257
KM-20L2 = test system: KM-20L2
UACC-62 = test system: UACC-62
CCRF-CEM = test system: CCRF-CEM
SF-268 = test system: SF-268
SK-MEL-2 = test system: SK-MEL-2
HCT-116 = test system: HCT-116
U-251 = test system: U-251
NCI-H226 = test system: NCI-H226
DLD-1 = test system: DLD-1
SK-MEL-5 = test system: SK-MEL-5
A549 = test system: A549
HL-60 = test system: HL-60
SNB-19 = test system: SNB-19
786-0 = test system: 786-0
HT-29 = test system: HT-29
SF-295 = test system: SF-295
HOP-62 = test system: HOP-62
DMS-273 = test system: DMS-273
SK-MEL-28 = test system: SK-MEL-28
SW-620 = test system: SW-620
SK-OV-3 = test system: SK-OV-3
IGROV-1 = test system: IGROV-1
HCC 2998 = test system: HCC 2998
K562 = test system: K562
OVCAR-8 = test system: OVCAR-8
ACHN = test system: ACHN
M14 = test system: M14
OVCAR-3 = test system: OVCAR-3
LXFL 529 = test system: LXFL 529
UO-31 = test system: UO-31
NCI-H23 = test system: NCI-H23
RXF 393 = test system: RXF 393
EKVX = test system: EKVX
MOLT-4 = test system: MOLT-4
HCT-15 = test system: HCT-15
CAKI-1 = test system: CAKI-1
SN12C = test system: SN12C
COLO 205 = test system: COLO 205
HOP-18 = test system: HOP-18
LOX IMVI = test system: LOX IMVI
NCI-H460 = test system: NCI-H460
OVCAR-5 = test system: OVCAR-5
OVCAR-4 = test system: OVCAR-4
RPMI-8226 = test system: RPMI-8226
SF-539 = test system: SF-539
SNB-78 = test system: SNB-78
DMS-114 = test system: DMS-114
HOP-92 = test system: HOP-92
A498 = test system: A498

Measured: GI50

COc1cccc(C(=O)O)c1Cc1cccc2ccccc12
inactive: M19-MEL > 100 µM | SR > 100 µM | SNB-75 > 100 µM | KM12 > 100 µM | NCI-H522 > 100 µM | Malme-3M > 100 µM | TK-10 > 100 µM | UACC-257 > 100 µM | KM-20L2 > 100 µM | UACC-62 > 100 µM | CCRF-CEM > 100 µM | SF-268 > 100 µM | SK-MEL-2 > 100 µM | HCT-116 > 100 µM | U-251 > 100 µM | NCI-H226 > 100 µM | DLD-1 > 100 µM | SK-MEL-5 > 100 µM | A549 > 100 µM | HL-60 > 100 µM | SNB-19 > 100 µM | 786-0 > 100 µM | HT-29 > 100 µM | SF-295 > 100 µM | HOP-62 > 100 µM | DMS-273 > 100 µM | SK-MEL-28 > 100 µM | SW-620 > 100 µM | SK-OV-3 > 100 µM | IGROV-1 > 100 µM | HCC 2998 > 100 µM | K562 > 100 µM | OVCAR-8 99.8 µM | ACHN > 100 µM | M14 > 100 µM | OVCAR-3 > 100 µM | LXFL 529 > 100 µM | UO-31 > 100 µM | NCI-H23 > 100 µM | RXF 393 > 100 µM | EKVX > 100 µM | MOLT-4 > 100 µM | CAKI-1 > 100 µM | SN12C > 100 µM | COLO 205 > 100 µM | HOP-18 > 100 µM | LOX IMVI > 100 µM | NCI-H460 > 100 µM | OVCAR-5 > 100 µM | OVCAR-4 > 100 µM
> 100 µM: HCT-15

NC(=O)N/C=C1\C(=O)Oc2ccccc2C1=O
inactive: KM12 > 100 µM | TK-10 > 100 µM | UACC-257 89.9 µM | KM-20L2 86.5 µM | UACC-62 77.8 µM | CCRF-CEM > 100 µM | SF-268 95.7 µM | RPMI-8226 > 100 µM | SK-MEL-2 40 µM | HCT-116 > 100 µM | NCI-H226 > 100 µM | DLD-1 > 100 µM | SK-MEL-5 > 100 µM | A549 10 µM | HL-60 53.8 µM | SF-539 85.9 µM | SNB-19 82.8 µM | HT-29 > 100 µM | SF-295 51.8 µM | SNB-78 43.2 µM | HOP-62 > 100 µM | DMS-273 > 100 µM | SK-MEL-28 73.5 µM | SW-620 > 100 µM | IGROV-1 > 100 µM | HCC 2998 > 100 µM | DMS-114 > 100 µM | K562 > 100 µM | OVCAR-8 > 100 µM | ACHN 48.2 µM | HOP-92 56.9 µM | M14 82.8 µM | OVCAR-3 84.7 µM | LXFL 529 > 100 µM | UO-31 31.9 µM | NCI-H23 > 100 µM | RXF 393 17.4 µM | EKVX > 100 µM | MOLT-4 > 100 µM | SN12C 64.4 µM | COLO 205 > 100 µM | LOX IMVI > 100 µM | NCI-H460 > 100 µM | OVCAR-5 35.3 µM | OVCAR-4 > 100 µM
48.5 µM: HCT-15

CCCc1c2c([nH]c(=O)c1C)C(=O)c1[nH]c(=O)c(C)c(CCC)c1C2=O
inactive: M19-MEL 2.21 µM | SR 5.56 µM | SNB-75 22.6 µM | Malme-3M 3.73 µM | TK-10 73.8 µM | UACC-257 2.84 µM | CCRF-CEM 21.7 µM | SF-268 23 µM | HCT-116 3.01 µM | NCI-H226 77.3 µM | SK-MEL-5 3.29 µM | A549 23.7 µM | HL-60 3.65 µM | SF-539 > 100 µM | SNB-19 18.7 µM | 786-0 25.1 µM | HT-29 4.75 µM | SF-295 47.6 µM | SNB-78 30.3 µM | HOP-62 > 100 µM | SK-MEL-28 23.6 µM | SW-620 4.78 µM | A498 > 100 µM | IGROV-1 23.6 µM | HCC 2998 38.4 µM | DMS-114 2.51 µM | K562 17.4 µM | OVCAR-8 4.47 µM | ACHN 7.48 µM | HOP-92 41 µM | M14 1.66 µM | OVCAR-3 1.46 µM | LXFL 529 63.2 µM | UO-31 56.4 µM | NCI-H23 23.2 µM | RXF 393 19.4 µM | MOLT-4 3.93 µM | SN12C 3.64 µM | COLO 205 25.8 µM | HOP-18 > 100 µM | LOX IMVI 8.11 µM | NCI-H460 14.5 µM | OVCAR-5 35.6 µM | OVCAR-4 12.2 µM
11.2 µM: HCT-15

Source: ChEMBL document CHEMBL1201862, “PubChem BioAssay data set” (2004)
